Consider four molecules from US20230097157A1, “Bicyclic Pyridin-2-one and pyrimidin-4-one Derivatives Useful As a Factor XIa Inhibitors” (Janssen Pharmaceutica NV, priority 2021, published 2023).

As usually defined, the IC50 is the midpoint of a concentration-inhibition curve.

The assay has as its target human plasma kallikrein (Homo sapiens, UniProt P03952). Briefly: Kallikrein inhibition assay (FLINT) utilizing a quenched AMC peptide substrate Z-Gly-Pro-Arg-AMC. The format is biochemical. The following applies: kinetic (KIN) reads, read-out: Kallikrein KIN Inh IC50. An excerpt:
Biological Example 2: Kallikrein Inhibition Assay Utilizing a Quenched AMC Peptide Substrate A fluorescence intensity (FLINT) based assay was used to monitor inhibition of human plasma kallikrein. The peptide substrate, Z-Gly-Pro-Arg-AMC (Purchased from Bachem; Catalog #I-1150) was chosen based on its relatively low KM for kallikrein which enables running the assay at lower substrate concentrations to control background fluorescence.
The Kallikrein FLINT assay was used with the following Z-Gly-Pro-Arg-AMC assay buffer: 50 mM Tris, pH 7.5, 100 mM NaCl, 5 mM CaCl2, 0.1 mg/mL BSA, 0.03% CHAPS. Assay buffer was prepared by mixing all ingredients fresh. 2× Z-Gly-Pro-Arg-AMC peptide substrate was prepared by diluting 10 mM stock into 1× assay buffer for a 100 μM working concentration (50 μM final concentration). The 2× kallikrein stock solution was prepared by diluting 14.76 μM stock in 1× assay buffer for a 4 nM working stock solution (2 nM final concentration).
Test compound(s) were run in an 11-point, 3-fold serial dilution with a final top compound concentration of 1 μM. Final DMSO in assay was 2%. Plasma kallikrein was pre-incubated for 30-minute with compound and then 50 μM substrate was added to initiate the reaction. The assay was run with kinetic (KIN) reads at 5 min intervals over 30 minutes. The time course was linear using 2 nM kallikrein greater than 30 minutes. More specifically, the assay was run as follows: • 100 nL of 0.1 mM test compound was dispensed into black 384-well non-binding Greiner BioOne 784900 plate for 1 μM final concentration; • 5 μL of 1× assay buffer was dispensed to columns 24 (low control) and 5 μL 2× human kallikrein enzyme solution was dispensed to columns 1-23 (column 23 high control); • the plate was centrifuged with a “cover” plate at 500 rpm for 1 min • the plate was pre-incubated for 30 minutes at room temperature with plate covered; • 5 μL of 2× Z-Gly-Pro-Arg-AMC peptide substrate was dispensed into the entire plate, columns 1-24; • the plate was centrifuged with a “cover” plate at 500 rpm for 1 min; • the plate was read monitoring fluorescence intensity on the BMG PHERAStar at room temperature, using fluorescence module 340 nm/440 nm.
Percent inhibition (IC50) curves were generated per compound tested, and data was analyzed using a 4-parameter logistic fit using GeneData Screener. The relative fluorescence unit (RFU) values were normalized to percent inhibition using the following equation:
% inhibition=((HC−LC)−(compound−LC)/(HC−LC))*100 where LC—low control=mean signal of […] or 100% inhibition of human kallikrein enzyme; HC—high control=mean signal of […]+Z-Gly-Pro-Arg-AMC peptide substrate with DMSO only.
An 11-point dose response curve for the test compound(s) was generated using GENDATA to determine IC50 value based on the following equation:
Y=Bottom+(Top−Bottom)/(1+10^((log IC50−X)*HillSlope)) where Y is the % inhibition in the presence of X inhibitor concentration, Top=high control=mean signal of human kallikrein enzyme+Z-Gly-Pro-Arg-AMC peptide substrate with DMSO only; Bottom=low control−mean signal of no human kallikrein enzyme or 100% inhibition of human kallikrein enzyme; HillSlope−Hill coefficient; and IC50=concentration of compound with 50% inhibition in relation to top/high control.

Where two headings read alike, the source gives them in different places. A value given as a limit tells only on which side of the number the result lay.

human plasma kallikrein, sequence (P03952 391-638 limits assumed): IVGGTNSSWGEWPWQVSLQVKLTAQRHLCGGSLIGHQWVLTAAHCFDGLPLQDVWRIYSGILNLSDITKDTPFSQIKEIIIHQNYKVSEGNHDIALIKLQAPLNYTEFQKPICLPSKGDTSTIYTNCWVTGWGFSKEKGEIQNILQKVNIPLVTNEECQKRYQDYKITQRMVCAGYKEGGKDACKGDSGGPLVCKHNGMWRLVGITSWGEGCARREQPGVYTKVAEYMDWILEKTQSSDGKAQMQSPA
human plasma kallikrein, sequence (P03952 20-390 partner limits assumed): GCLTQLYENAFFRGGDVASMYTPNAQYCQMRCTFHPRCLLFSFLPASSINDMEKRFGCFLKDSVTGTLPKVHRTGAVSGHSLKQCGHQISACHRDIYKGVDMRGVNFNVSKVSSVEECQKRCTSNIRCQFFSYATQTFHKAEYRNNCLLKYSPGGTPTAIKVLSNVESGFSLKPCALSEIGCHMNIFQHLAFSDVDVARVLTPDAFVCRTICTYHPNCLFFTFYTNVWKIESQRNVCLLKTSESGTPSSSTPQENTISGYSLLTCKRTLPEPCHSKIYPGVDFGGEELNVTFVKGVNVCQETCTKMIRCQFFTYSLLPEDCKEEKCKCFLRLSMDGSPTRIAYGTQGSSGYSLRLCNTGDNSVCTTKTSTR

On to `C[C@H]1C[C@@H](c2ncc(-c3ccc(N)nc3Cl)[nH]2)n2c1cc(-c1c(-n3cnnn3)ccc(Cl)c1F)cc2=O` (relative stereo) [Example 57, (1*S,3*S)-3-(5-(6-Amino-2-chloropyridin-3-yl)-1H-imidazol-2-yl)-7-(3-chloro-2-fluoro-6-(1H-tetrazol-1-yl)phenyl)-1-methyl-2,3-dihydroindolizin-5(1H)-one], for which the half-maximal inhibitory concentration (IC50) (unit μM) worked out at 3.4 µM.

In the case of `O=c1cc(-c2c(-n3cnnn3)ccc(Cl)c2F)nc2n1C(c1ncc(-c3ccnc(C4(O)CC4)c3F)[nH]1)CC21CC1` (single isomer, unassigned) [Example 75, (R*)-2′-(3-Chloro-2-fluoro-6-(1H-tetrazol-1-yl)phenyl)-6′-(5-(3-fluoro-2-(1-hydroxycyclopropyl)pyridin-4-yl)-1H-imidazol-2-yl)-6′,7′-dihydro-4′H-spiro[cyclopropane-1,8′-pyrrolo[1,2-a]pyrimidin]-4′-one], the IC50 (values in nM) is 0.0976 µM.

On to `C[C@H]1CC(c2ncc(-c3ccnc(CN)c3)[nH]2)n2c1cc(-c1c(-n3cnnn3)ccc(Cl)c1F)cc2=O` (stereo in doubt) [Example 39, (1*S,3*S)-3-(5-(2-(Aminomethyl)pyridin-4-yl)-1H-imidazol-2-yl)-7-(3-chloro-2-fluoro-6-(1H-tetrazol-1-yl)phenyl)-1-methyl-2,3-dihydroindolizin-5(1H)-one], for which the IC50 (unit μM) was over 10 µM.

In the case of `C[C@H]1C[C@@H](c2ncc(-c3ccc(N)nc3Cl)[nH]2)n2c1cc(-c1c(-n3cnnn3)ccc(Cl)c1F)cc2=O` [Example 59, (1S,3S)-3-(5-(6-Amino-2-chloropyridin-3-yl)-1H-imidazol-2-yl)-7-(3-chloro-2-fluoro-6-(1H-tetrazol-1-yl)phenyl)-1-methyl-2,3-dihydroindolizin-5(1H)-one], the 50% inhibitory concentration (IC50) (values in nM) worked out at 0.0116 µM.
